These results are taken from US20240307308A1, “PORPHYRIN NANOVESICLE WITH FATTY ACID CONJUGATE” (priority 2021, published 2024).

“Also recorded” adds a separate entry of the source.

One data set relates to KB cells. The experiment in a line: Intracellular uptake by fluorescence microscopy. The data set is classed as cell-based. The conditions noted are these: 1 mM (1000 μM) free EDTA with 5 μM PS. On the procedure:
Fluorescence microscopy method was firstly used to track particles' intracellular uptake on KB cells that cultured in RPMI-1640 media with 10% FBS. Briefly, 5×10^4 cells/well were seeded in eight-well chamber slides 24 h prior to incubation. Cells were incubated with NPS and PS at porphyrin concentration of 1 μM for 4 h at 37° C., rinsed with PBS for 3 times and then re-culture in fresh media. Olympus FV1000 laser fluorescence scanning microscopy (Olympus, Tokyo, Japan) was conducted to monitor the porphyrin fluorescence change of the cells with time (immediately and at 3 h and 18 h after removing the incubation medium). The fluorescence microscopy method was also used to examine eNPS uptake in KB epithelium cells versus normal fibroblast cells (NFB)

The conditions of data set [1]: doses of 1000 mg/kg; cited from earlier work.

As for `O=C(O)CN(CCN(CC(=O)O)CC(=O)O)CC(=O)O` [free EDTA, Ethylenediaminetetraacetic acid], the “Effect of co-incubated free EDTA on PS uptake” value with KB cells was “negligible enhancement; also recorded: negligible effect”. For the compound “pyropheophorbide-lipid [porphyrin-lipid]”, the Acute toxicity entry in data set [1] was “minimal acute toxicities”.
